Reference: US20220249576A1 (priority 2021, published 2022)

Legend:
[1] = test system: Aspergillus endosomal development; conditions: previously observed; cited from earlier work
A. flavus = assay type: cell-based, Aspergillus flavus

| SMILES | minimal inhibitory concentration (MIC) for disruption of Aspergillus endosomal development [1] [µmol/L] | aflatoxin levels compared to the filipin treated samples (A. flavus) | aflatoxin production compared to untreated control (A. flavus + the exemplary composition) (A. flavus) |
| --- | --- | --- | --- |
| CCCCC[C@@H](O)[C@H]1C(=O)O[C@H](C)[C@@H](O)/C=C/C=C/C=C/C=C/C=C(\C)[C@@H](O)C[C@H](O)C[C@H](O)C[C@H](O)C[C@H](O)C[C@H](O)C[C@@H]1O [filipin] | 3 |  |  |
| C[C@@H]1C/C=C/C=C/C=C/C=C/[C@H](O[C@@H]2O[C@H](C)[C@@H](O)[C@H](N)[C@@H]2O)C[C@@H]2O[C@](O)(C[C@@H](O)C[C@H]3O[C@@H]3/C=C/C(=O)O1)C[C@H](O)[C@H]2C(=O)O [natamycin] | 6 | significantly greater increase | increase aflatoxin production |
